These results are taken from EP0496332A1, “Alpha-aminoquinolinoyl-[3]-penicillines, process for their preparation and their use as antibacterial agents” (ARZNEIMITTELWERK DRESDEN GmbH, priority 1991, dated 1992).

What all share (assay): In-vitro test, inhibitory concentration by dilution series
Common to all, as to type: cell-based

In assay [1] the test system is Serratia marcescens SG 621. The settings on record: SG621; VIII = Serratia marcescens SG 621; step = concentration with no visible growth; read-out: Hemmkonzentration nach Verdünnung (Verdünnungsreihe) (converted). From the text:
(§1) Die antibiotische Wirksamkeit erfindungsgemäßer Verbindungen wurde in der üblichen Weise durch Ermittlung der Hemmkonzentrationen nach Verdünnung ermittelt.
(§2) Die erhaltenen Ergebnisse sind in der nachstehenden Tabelle zusammengefaßt.

Assay [2] relates to Klebsiella pneumoniae SG 117. Conditions: SG117; VII = Klebsiella pneumoniae SG 117; step = concentration with no visible growth; read-out: Hemmkonzentration nach Verdünnung (Verdünnungsreihe) (converted).
From the text: as §1, §2

For another assay, the system named is Escherichia coli. Conditions: XII = Escherichia coli, Laborstämme; step = concentration with no visible growth; read-out: Hemmkonzentration nach Verdünnung (Verdünnungsreihe) (converted).
From the text: as §1, §2

The test system of a further assay is Citrobacter freudii. The settings on record: XIV = Citrobacter freudii, Laborstämme; step = concentration with no visible growth; read-out: Hemmkonzentration nach Verdünnung (Verdünnungsreihe) (converted).
From the text: as §1, §2

In another assay the test system is Bacillus subtilis SG 119. Conditions: SG119; I = Bacillus subtilis SG 119; step = concentration with no visible growth; read-out: Hemmkonzentration nach Verdünnung (Verdünnungsreihe) (converted).
From the text: as §1, §2

The test system of assay [3] is Pseudomonas aeruginosa NCTC 10701. The settings on record: NCTC10701; IV = Pseudomonas aeruginosa NCTC 10701; step = concentration with no visible growth; read-out: Hemmkonzentration nach Verdünnung (Verdünnungsreihe) (converted).
From the text: as §1, §2

Assay [4] concerns Staphylococcus epidermidis. The settings on record: X = Staphylococcus epidermidis, Laborstämme; step = concentration with no visible growth; read-out: Hemmkonzentration nach Verdünnung (Verdünnungsreihe) (converted).
From the text: as §1, §2

A further assay concerns Staphylococcus aureus. Conditions: IX = Staphylococcus aureus, Laborstämme; step = concentration with no visible growth; read-out: Hemmkonzentration nach Verdünnung (Verdünnungsreihe) (converted).
From the text: as §1, §2

In assay [5] the test system is Staphylococcus aureus SG 511. The settings on record: SG511; II = Staphylococcus aureus SG 511; step = concentration with no visible growth; read-out: Hemmkonzentration nach Verdünnung (Verdünnungsreihe) (converted).
From the text: as §1, §2

Another assay concerns Enterokokken. The settings on record: XI = Enterokokken, Laborstämme; step = concentration with no visible growth; read-out: Hemmkonzentration nach Verdünnung (Verdünnungsreihe) (converted).
From the text: as §1, §2

A further assay has as its system Enterobacter cloacae. Conditions: XIII = Enterobacter cloacae, Laborstämme; step = concentration with no visible growth; read-out: Hemmkonzentration nach Verdünnung (Verdünnungsreihe) (converted).
From the text: as §1, §2

In assay [6] the test system is Salmonella gallinarium ATCC 9184. Conditions: ATCC9184; VI = Salmonella gallinarium ATCC 9184; step = concentration with no visible growth; read-out: Hemmkonzentration nach Verdünnung (Verdünnungsreihe) (converted).
From the text: as §1, §2

For assay [7], the system named is Pseudomonas aeruginosa SG 137. The settings on record: SG137; V = Pseudomonas aeruginosa SG 137; step = concentration with no visible growth; read-out: Hemmkonzentration nach Verdünnung (Verdünnungsreihe) (converted).
From the text: as §1, §2

A further assay relates to Proteus vulgaris OX 19. Conditions: OX19; III = Proteus vulgaris OX 19; step = concentration with no visible growth; read-out: Hemmkonzentration nach Verdünnung (Verdünnungsreihe) (converted).
From the text: as §1, §2

Each structure is given as a SMILES string. ≈ marks a conversion by molar mass, not a printed value.

For `COc1ccc2ncc(C(=O)N[C@@H](C(=O)N[C@@H]3C(=O)N4[C@@H]3SC(C)(C)[C@@H]4C(=O)O)c3ccccc3)c(O)c2c1` [Beisp. 9, 6-[D-(-)-α-([4'-Hydroxy-6'-methoxy-chinolinoyl-3']-carboxamido)-α-phenylacetamido]-penicillansäure-Natriumsalz], the MIC in [1] was 1.56 µM (≈ 0.859 µg/mL); in assay [2] it was 1.56 µM (≈ 0.859 µg/mL); in the assay on Escherichia coli, 3.12 µM (≈ 1.72 µg/mL); in the assay with Citrobacter freudii, 25 µM (≈ 13.8 µg/mL); in the assay with Bacillus subtilis SG 119, 1.56 µM (≈ 0.859 µg/mL); in [3], 0.39 µM (≈ 0.215 µg/mL). In addition, the MIC is 6.25 µM (≈ 3.44 µg/mL) in assay [4]; 12.5 µM (≈ 6.88 µg/mL) in the assay with Staphylococcus aureus; 1.56 µM (≈ 0.859 µg/mL) in assay [5]; 25 µM (≈ 13.8 µg/mL) in the assay with Enterokokken; 25 µM (≈ 13.8 µg/mL) in the assay with Enterobacter cloacae; 1.56 µM (≈ 0.859 µg/mL) in assay [6]. For the same compound, the results for the MIC (in assay [7]; in the assay with Proteus vulgaris OX 19) were 25 µM (≈ 13.8 µg/mL) and 0.39 µM (≈ 0.215 µg/mL), respectively.
